Consider 32 molecules from patent publication US12336981B2, “Compounds and compositions for the inhibition of NAMPT” (Valo Health, Inc., priority 2010, dated 2025).

Where two headings read alike, the source gives them in different places.

The target in one assay is T1, NAMPT (Homo sapiens, UniProt P43490).
T1 construct: His tag; host or cells: E. coli
Description: Biochemical inhibition assay: NAMPT enzymatic reaction, NMN quantified by mass spectrometry. Conditions: read-out: Biochem IC50. In a few lines:
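Inhibition of E. coli-expressed His-tagged human NAMPT, measured as NMN formation by mass spectrometry after a 30 min room-temperature reaction containing 1 μM NAM, 100 μM PRPP and 2.5 mM ATP.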

The subject of another assay is A2780 cells. Description: In-vitro cell proliferation assay (SRB), A2780 cells. In kind it is cell-based. Conditions: Homo sapiens, A2780, 72 h, A2780 cells, 72 hours, read-out: A2780 IC50. The procedure, abridged:
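Viable cells measured by SRB staining after 6% TCA fixation, absorbance 570 nm. Media-only background subtracted; % inhibition derived at two compound concentrations.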

T1 sequence (P43490 whole entry): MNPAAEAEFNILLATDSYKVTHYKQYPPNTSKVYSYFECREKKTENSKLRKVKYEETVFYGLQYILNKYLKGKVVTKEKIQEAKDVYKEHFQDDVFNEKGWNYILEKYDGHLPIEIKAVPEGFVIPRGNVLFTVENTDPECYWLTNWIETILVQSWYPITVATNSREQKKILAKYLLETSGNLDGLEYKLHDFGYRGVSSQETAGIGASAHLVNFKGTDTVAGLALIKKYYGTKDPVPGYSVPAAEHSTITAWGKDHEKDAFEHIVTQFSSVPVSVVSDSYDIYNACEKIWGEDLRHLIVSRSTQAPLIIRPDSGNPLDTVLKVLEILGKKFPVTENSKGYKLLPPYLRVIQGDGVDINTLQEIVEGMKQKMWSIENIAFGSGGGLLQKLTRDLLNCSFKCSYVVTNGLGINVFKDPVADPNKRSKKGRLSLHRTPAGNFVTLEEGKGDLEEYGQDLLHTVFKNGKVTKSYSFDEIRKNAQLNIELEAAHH

By IC50 is commonly meant the concentration at which inhibition is half-maximal. In the case of `COc1ccc(OC)c(S(=O)(=O)c2ccc(CNC(=O)c3cnc4[nH]ncc4c3)cc2)c1` [N-({4-[(2,5-dimethoxybenzene)sulfonyl]phenyl}methyl)-1H-pyrazolo[3,4-b]pyridine-5-carboxamide], the IC50 turned out to be 39.8 nM at NAMPT (NAMPT enzymatic reaction) and 24.8 nM in the assay with A2780 cells (SRB).
In the case of `COc1ccc(OC)c(S(=O)(=O)c2ccc(CNC(=O)c3cc4cnccc4[nH]3)cc2)c1` [N-({4-[(2,5-dimethoxybenzene)sulfonyl]phenyl}methyl)-1H-pyrrolo[3,2-c]pyridine-2-carboxamide], the IC50 on NAMPT (NAMPT enzymatic assay) came to 17 nM; in the assay on A2780 cells (SRB), 6 nM.
For `COc1ccc(OC)c(S(=O)(=O)c2ccc(CNC(=O)c3ccc4nccn4c3)cc2)c1` [N-({4-[(2,5-dimethoxybenzene)sulfonyl]phenyl}methyl)imidazo[1,2-a]pyridine-6-carboxamide], the IC50 at NAMPT (NAMPT enzymatic reaction) is 20.2 nM; with A2780 cells (SRB) it was 12.8 nM.
Regarding `COc1ccc(OC)c(S(=O)(=O)c2ccc(CNC(=O)c3cnc4nccn4c3)cc2)c1` [N-({4-[(2,5-dimethoxybenzene)sulfonyl]phenyl}methyl)imidazo[1,2-a]pyrimidine-6-carboxamide], the results for the IC50 at NAMPT (NAMPT enzymatic reaction) and in the assay with A2780 cells (SRB) were 6.9 nM and 45.7 nM, respectively.
Regarding `COc1ccc(OC)c(S(=O)(=O)c2ccc(CNC(=O)c3cc4ccncc4s3)cc2)c1` [N-({4-[(2,5-dimethoxybenzene)sulfonyl]phenyl}methyl)thieno[2,3-c]pyridine-2-carboxamide], the half-inhibitory concentration (IC50) at NAMPT (NAMPT enzymatic assay) stood at 4 nM; with A2780 cells (SRB) it was 2.3 nM.
As for `Cc1ccc(C)c(S(=O)(=O)c2ccc(CNC(=O)c3cnc4[nH]ncc4c3)cc2)c1` [N-({4-[(2,5-dimethylbenzene)sulfonyl]phenyl}methyl)-1H-pyrazolo[3,4-b]pyridine-5-carboxamide], the IC50 on NAMPT (NAMPT enzymatic reaction) was found to be 20.9 nM; in the assay on A2780 cells (SRB), 17.2 nM.
`Cc1ccc(C)c(S(=O)(=O)c2ccc(CNC(=O)c3cc4cnccc4[nH]3)cc2)c1` [N-({4-[(2,5-dimethylbenzene)sulfonyl]phenyl}methyl)-1H-pyrrolo[3,2-c]pyridine-2-carboxamide]: the values for the half-maximal inhibitory concentration (IC50) on NAMPT (NAMPT enzymatic reaction) and in the assay on A2780 cells (SRB assay) were 11 nM and 14 nM, respectively.
`Cc1ccc(C)c(S(=O)(=O)c2ccc(CNC(=O)c3ccc4nccn4c3)cc2)c1` [N-({4-[(2,5-dimethylbenzene)sulfonyl]phenyl}methyl)imidazo[1,2-a]pyridine-6-carboxamide]: the IC50 is 29.3 nM on NAMPT (NAMPT enzymatic reaction) and 15.4 nM with A2780 cells (SRB).
For `Cc1ccc(C)c(S(=O)(=O)c2ccc(CNC(=O)c3cc4ccncc4s3)cc2)c1` [N-({4-[(2,5-dimethylbenzene)sulfonyl]phenyl}methyl)thieno[2,3-c]pyridine-2-carboxamide], the half-inhibitory concentration (IC50) at NAMPT (NAMPT enzymatic reaction) was found to be 11 nM; in the assay with A2780 cells (SRB assay) it was 8.6 nM.
In the case of `Cc1ccc(Cl)c(S(=O)(=O)c2ccc(CNC(=O)c3cc4ccncc4s3)cc2)c1Cl` [N-({4-[(2,6-dichloro-3-methylbenzene)sulfonyl]phenyl}methyl)thieno[2,3-c]pyridine-2-carboxamide], the values for the half-maximal inhibitory concentration (IC50) at NAMPT (NAMPT enzymatic reaction) and in the assay with A2780 cells (SRB) were 4.4 nM and 8.2 nM, respectively.
On to `COc1cc(C)cc(OC)c1S(=O)(=O)c1ccc(CNC(=O)c2cc3cnccc3[nH]2)cc1` [N-({4-[(2,6-dimethoxy-4-methylbenzene)sulfonyl]phenyl}methyl)-1H-pyrrolo[3,2-c]pyridine-2-carboxamide], for which the IC50 came to 16 nM at NAMPT (NAMPT enzymatic reaction) and 10 nM with A2780 cells (SRB assay).
In the case of `COc1cc(C)cc(OC)c1S(=O)(=O)c1ccc(CNC(=O)c2cc3ccncc3o2)cc1` [N-({4-[(2,6-dimethoxy-4-methylbenzene)sulfonyl]phenyl}methyl)furo[2,3-c]pyridine-2-carboxamide], the half-inhibitory concentration (IC50) at NAMPT (NAMPT enzymatic reaction) was 5 nM; in the assay on A2780 cells (SRB), 23 nM.
In the case of `COc1cc(C)cc(OC)c1S(=O)(=O)c1ccc(CNC(=O)c2cc3ccncc3s2)cc1` [N-({4-[(2,6-dimethoxy-4-methylbenzene)sulfonyl]phenyl}methyl)thieno[2,3-c]pyridine-2-carboxamide], the figures for the IC50 on NAMPT (NAMPT enzymatic reaction) and in the assay on A2780 cells (SRB assay) were 7 nM and 3 nM, respectively.
As for `Cc1cccc(C)c1S(=O)(=O)c1ccc(CNC(=O)c2cnc3[nH]ncc3c2)cc1` [N-({4-[(2,6-dimethylbenzene)sulfonyl]phenyl}methyl)-1H-pyrazolo[3,4-b]pyridine-5-carboxamide], the figures for the half-inhibitory concentration (IC50) at NAMPT (NAMPT enzymatic reaction) and with A2780 cells (SRB) were 159 nM and 100 to 1000 nM, respectively.
As to `CC(=O)c1ccccc1S(=O)(=O)c1ccc(CNC(=O)c2cnc3[nH]ncc3c2)cc1` [N-({4-[(2-acetylbenzene)sulfonyl]phenyl}methyl)-1H-pyrazolo[3,4-b]pyridine-5-carboxamide], the IC50 stood at 3.6 nM at NAMPT (NAMPT enzymatic reaction) and 11.4 nM in the assay on A2780 cells (SRB).
Consider `CC(=O)c1ccccc1S(=O)(=O)c1ccc(CNC(=O)c2cc3cnccc3[nH]2)cc1` [N-({4-[(2-acetylbenzene)sulfonyl]phenyl}methyl)-1H-pyrrolo[3,2-c]pyridine-2-carboxamide], for which the half-inhibitory concentration (IC50) came to 6 nM at NAMPT (NAMPT enzymatic reaction) and 4 nM in the assay on A2780 cells (SRB assay).
With `CC(=O)c1ccccc1S(=O)(=O)c1ccc(CNC(=O)c2cc3ccncc3o2)cc1` [N-({4-[(2-acetylbenzene)sulfonyl]phenyl}methyl)furo[2,3-c]pyridine-2-carboxamide], the IC50 at NAMPT (NAMPT enzymatic reaction) amounted to 5.7 nM; with A2780 cells (SRB), 6.5 nM.
With `CC(=O)c1ccccc1S(=O)(=O)c1ccc(CNC(=O)c2cc3ccncc3s2)cc1` [N-({4-[(2-acetylbenzene)sulfonyl]phenyl}methyl)thieno[2,3-c]pyridine-2-carboxamide], the IC50 on NAMPT (NAMPT enzymatic reaction) and with A2780 cells (SRB assay) was 1 nM in each case.
As to `CC(=O)c1ccccc1NS(=O)(=O)c1ccc(CNC(=O)c2cc3cnccc3[nH]2)cc1` [N-({4-[(2-acetylphenyl)sulfamoyl]phenyl}methyl)-1H-pyrrolo[3,2-c]pyridine-2-carboxamide], the half-inhibitory concentration (IC50) at NAMPT (NAMPT enzymatic reaction) and in the assay on A2780 cells (SRB assay) was 5 nM each time.
For the molecule `CCCCOc1cc(F)ccc1S(=O)(=O)c1ccc(CNC(=O)c2cnc3[nH]ncc3c2)cc1` [N-({4-[(2-butoxy-4-fluorobenzene)sulfonyl]phenyl}methyl)-1H-pyrazolo[3,4-b]pyridine-5-carboxamide], the IC50 at NAMPT (NAMPT enzymatic reaction) was 176 nM; in the assay on A2780 cells (SRB), 100 to 1000 nM.
In the case of `CCCCOc1ccc(Cl)cc1S(=O)(=O)c1ccc(CNC(=O)c2cnc3[nH]ncc3c2)cc1` [N-({4-[(2-butoxy-5-chlorobenzene)sulfonyl]phenyl}methyl)-1H-pyrazolo[3,4-b]pyridine-5-carboxamide], the IC50 came to 117 nM at NAMPT (NAMPT enzymatic reaction) and 73.7 nM in the assay with A2780 cells (SRB).
In the same order, the values of `COc1ccc(S(=O)(=O)c2ccc(CNC(=O)c3cnc4[nH]ncc4c3)cc2)c(Cl)c1` [N-({4-[(2-chloro-4-methoxybenzene)sulfonyl]phenyl}methyl)-1H-pyrazolo[3,4-b]pyridine-5-carboxamide] are 51.6 nM and 87.7 nM.
Consider `Cc1ccc(S(=O)(=O)c2ccc(CNC(=O)c3cnc4[nH]ncc4c3)cc2)c(Cl)c1` [N-({4-[(2-chloro-4-methylbenzene)sulfonyl]phenyl}methyl)-1H-pyrazolo[3,4-b]pyridine-5-carboxamide], for which the results for the IC50 on NAMPT (NAMPT enzymatic reaction) and in the assay with A2780 cells (SRB) were 5 nM and 2.78 nM, respectively.
In the case of `COc1ccc(Cl)c(S(=O)(=O)c2ccc(CNC(=O)c3cnc4[nH]ncc4c3)cc2)c1` [N-({4-[(2-chloro-5-methoxybenzene)sulfonyl]phenyl}methyl)-1H-pyrazolo[3,4-b]pyridine-5-carboxamide], the half-inhibitory concentration (IC50) at NAMPT (NAMPT enzymatic reaction) is 24.7 nM; with A2780 cells (SRB), 66.8 nM.
For the molecule `COc1cccc(Cl)c1S(=O)(=O)c1ccc(CNC(=O)c2cc3cnccc3[nH]2)cc1` [N-({4-[(2-chloro-6-methoxybenzene)sulfonyl]phenyl}methyl)-1H-pyrrolo[3,2-c]pyridine-2-carboxamide], the IC50 on NAMPT (NAMPT enzymatic reaction) came out at 13 nM; in the assay on A2780 cells (SRB assay), 3 nM.
For the molecule `COc1cccc(Cl)c1S(=O)(=O)c1ccc(CNC(=O)c2ccc3nccn3c2)cc1` [N-({4-[(2-chloro-6-methoxybenzene)sulfonyl]phenyl}methyl)imidazo[1,2-a]pyridine-6-carboxamide], the half-maximal inhibitory concentration (IC50) on NAMPT (NAMPT enzymatic reaction) is 20.2 nM; with A2780 cells (SRB), 25.8 nM.
As to `O=C(NCc1ccc(S(=O)(=O)c2ccccc2Cl)cc1)c1cnc2[nH]ncc2c1` [N-({4-[(2-chlorobenzene)sulfonyl]phenyl}methyl)-1H-pyrazolo[3,4-b]pyridine-5-carboxamide], the half-maximal inhibitory concentration (IC50) is 92.5 nM on NAMPT (NAMPT enzymatic reaction) and 100 to 1000 nM in the assay on A2780 cells (SRB).
In the case of `O=C(NCc1ccc(S(=O)(=O)c2ccccc2Cl)cc1)c1cc2cnccc2[nH]1` [N-({4-[(2-chlorobenzene)sulfonyl]phenyl}methyl)-1H-pyrrolo[3,2-c]pyridine-2-carboxamide], the IC50 on NAMPT (NAMPT enzymatic reaction) worked out at 6 nM; in the assay with A2780 cells (SRB assay), 117 nM.
`O=C(NCc1ccc(S(=O)(=O)c2ccccc2Cl)cc1)c1ccc2nccn2c1` [N-({4-[(2-chlorobenzene)sulfonyl]phenyl}methyl)imidazo[1,2-a]pyridine-6-carboxamide]: the 50% inhibitory concentration (IC50) on NAMPT (NAMPT enzymatic reaction) is 24.1 nM; in the assay with A2780 cells (SRB) it was 56.7 nM.
With `N#Cc1ccccc1S(=O)(=O)c1ccc(CNC(=O)c2cnc3[nH]ncc3c2)cc1` [N-({4-[(2-cyanobenzene)sulfonyl]phenyl}methyl)-1H-pyrazolo[3,4-b]pyridine-5-carboxamide], the IC50 at NAMPT (NAMPT enzymatic reaction) is 131 nM; in the assay with A2780 cells (SRB) it was 100 to 1000 nM.
Regarding `N#Cc1ccccc1S(=O)(=O)c1ccc(CNC(=O)c2cc3cnccc3[nH]2)cc1` [N-({4-[(2-cyanobenzene)sulfonyl]phenyl}methyl)-1H-pyrrolo[3,2-c]pyridine-2-carboxamide], the values for the IC50 at NAMPT (NAMPT enzymatic reaction) and in the assay on A2780 cells (SRB) were 25.3 nM and 62.9 nM, respectively.
In the same order, the values of `N#Cc1ccccc1S(=O)(=O)c1ccc(CNC(=O)c2cc3ccncc3o2)cc1` [N-({4-[(2-cyanobenzene)sulfonyl]phenyl}methyl)furo[2,3-c]pyridine-2-carboxamide] are 24.6 nM and 63.5 nM.
